Measured values from ChEMBL document CHEMBL1671705, “Investigations into the role of the Plasmodium falciparum SERCA (PfATP6) L263E mutation in artemisinin action and resistance” (Antimicrob Agents Chemother, 2010).

Experiments:
Format in all cases: functional, organism-based
Plasmodium falciparum [1] = assay: Antimalarial activity against Plasmodium falciparum D10 harboring pfATP6 L263 mutant assessed as inhibition of [3H]hypoxanthine incorporation
Plasmodium falciparum [2] = assay: Antimalarial activity against Plasmodium falciparum 7G8 harboring pfATP6 263E mutant assessed as inhibition of [3H]hypoxanthine incorporation
Plasmodium falciparum [3] = assay: Antimalarial activity against Plasmodium falciparum D10 clone 1 assessed as inhibition of [3H]hypoxanthine incorporation
Plasmodium falciparum [4] = assay: Antimalarial activity against Plasmodium falciparum D10 clone 2 assessed as inhibition of [3H]hypoxanthine incorporation
Plasmodium falciparum [5] = assay: Antimalarial activity against Plasmodium falciparum D10 clone M2 assessed as inhibition of [3H]hypoxanthine incorporation
Plasmodium falciparum [6] = assay: Antimalarial activity against Plasmodium falciparum D10 harboring pfATP6 263E mutant assessed as inhibition of [3H]hypoxanthine incorporation
Plasmodium falciparum [7] = assay: Antimalarial activity against Plasmodium falciparum 7G8 clone 1 harboring pfATP6 L263 mutant assessed as inhibition of [3H]hypoxanthine incorporation
Plasmodium falciparum [8] = assay: Antimalarial activity against Plasmodium falciparum D10 clone M1 harboring pfATP6 L263 mutant assessed as inhibition of [3H]hypoxanthine incorporation
Plasmodium falciparum [9] = assay: Antimalarial activity against Plasmodium falciparum 7G8 clone M1 assessed as inhibition of [3H]hypoxanthine incorporation
Plasmodium falciparum [10] = assay: Antimalarial activity against Plasmodium falciparum D10 clone M1 assessed as inhibition of [3H]hypoxanthine incorporation
Plasmodium falciparum [11] = assay: Antimalarial activity against Plasmodium falciparum 7G8 clone M2 assessed as inhibition of [3H]hypoxanthine incorporation
Plasmodium falciparum [12] = assay: Antimalarial activity against Plasmodium falciparum D10 clone 1 harboring pfATP6 L263 mutant assessed as inhibition of [3H]hypoxanthine incorporation
Plasmodium falciparum [13] = assay: Antimalarial activity against Plasmodium falciparum 7G8 clone M1 harboring pfATP6 L263 mutant assessed as inhibition of [3H]hypoxanthine incorporation
Plasmodium falciparum [14] = assay: Antimalarial activity against Plasmodium falciparum 7G8 clone 2 assessed as inhibition of [3H]hypoxanthine incorporation
Plasmodium falciparum [15] = assay: Antimalarial activity against Plasmodium falciparum 7G8 harboring pfATP6 L263 mutant assessed as inhibition of [3H]hypoxanthine incorporation
Plasmodium falciparum [16] = assay: Antimalarial activity against Plasmodium falciparum 7G8 clone M3 assessed as inhibition of [3H]hypoxanthine incorporation
Plasmodium falciparum [17] = assay: Antimalarial activity against Plasmodium falciparum 7G8 clone 1 assessed as inhibition of [3H]hypoxanthine incorporation
Plasmodium falciparum [18] = assay: Antimalarial activity against Plasmodium falciparum 7G8 clone M4 assessed as inhibition of [3H]hypoxanthine incorporation
Plasmodium falciparum [19] = assay: Antimalarial activity against Plasmodium falciparum D10 clone M3 assessed as inhibition of [3H]hypoxanthine incorporation

Row | Structure (SMILES) | IC50 (Plasmodium falciparum [1]) | IC50 (Plasmodium falciparum [2]) | IC50 (Plasmodium falciparum [3]) | IC50 (Plasmodium falciparum [4]) | IC50 (Plasmodium falciparum [5]) | IC50 (Plasmodium falciparum [6]) | IC50 (Plasmodium falciparum [7]) | IC50 (Plasmodium falciparum [8]) | IC50 (Plasmodium falciparum [9]) | IC50 (Plasmodium falciparum [10]) | IC50 (Plasmodium falciparum [11]) | IC50 (Plasmodium falciparum [12]) | IC50 (Plasmodium falciparum [13]) | IC50 (Plasmodium falciparum [14]) | IC50 (Plasmodium falciparum [15]) | IC50 (Plasmodium falciparum [16]) | IC50 (Plasmodium falciparum [17]) | IC50 (Plasmodium falciparum [18]) | IC50 (Plasmodium falciparum [19])
1 | C[C@@H]1CC[C@H]2[C@@H](C)C(=O)O[C@@H]3O[C@@]4(C)CC[C@@H]1[C@]32OO4 [ARTEMISININ] | 42.8 nM | 22.3 nM | 47.6 nM | 34.3 nM | 55.8 nM | 51.6 nM | 20.7 nM | 51.6 nM | 25.2 nM | 62.3 nM | 19.7 nM | 42.8 nM | 22.3 nM | 20.9 nM | 20.7 nM | 20.5 nM | 20.6 nM | 25.3 nM | 36.8 nM
2 | C[C@H]1[C@H](OC(=O)CCC(=O)O)O[C@@H]2O[C@@]3(C)CC[C@H]4[C@H](C)CC[C@@H]1[C@@]24OO3 [ARTESUNATE] | 23.6 nM | 14.9 nM | 26.6 nM | 16.8 nM | 27.7 nM | 26.2 nM | 13.5 nM | 26.2 nM | 16 nM | 26.5 nM | 13.3 nM | 23.6 nM | 14.9 nM | 12.1 nM | 13.5 nM | 12.4 nM | 14.2 nM | 21.3 nM | 24.3 nM
3 | C[C@H]1[C@@H](O)O[C@@H]2O[C@@]3(C)CC[C@H]4[C@H](C)CC[C@@H]1[C@@]24OO3 [ARTENIMOL] | 3.41 nM | 1.3 nM | 3.42 nM | 3.38 nM | 4.52 nM | 3.96 nM | 2.26 nM | 3.96 nM | 2.58 nM | 3.79 nM | 2.19 nM | 3.41 nM | 2.37 nM | 2.76 nM | 2.26 nM | 2.41 nM | 2.01 nM | 2.25 nM | 3.56 nM
